{
  "source": "ChEMBL document CHEMBL2203009",
  "about": "“Synthesis of isoindole and benzoisoindole derivatives of teicoplanin pseudoaglycon with remarkable antibacterial and antiviral activities” (Bioorg Med Chem Lett, 2012)",
  "key": {"[1]": {"assay": "Toxicity in MDCK cells assessed as induction of cell morphology changes", "assay_type": "cell-based, Canis lupus familiaris", "conditions": "dog"}, "Influenza B virus": {"system": "Influenza B virus", "assay": "Antiviral activity against Influenza B virus (B/Hong Kong/05/1972) […] infected in MDCK cells assessed as inhibition of virus-induced cytopathic effect", "assay_type": "functional, cell-based", "conditions": "B/Hong Kong/05/1972, MDCK"}, "H3N2 subtype": {"system": "H3N2 subtype", "assay": "Antiviral activity against Influenza A virus (A/Hong Kong/7/1987(H3N2)) […] infected in MDCK cells assessed as inhibition of virus-induced cytopathic effect", "assay_type": "functional, organism-based"}, "Influenza A virus": {"system": "Influenza A virus", "assay": "Antiviral activity against Influenza A virus (A/Puerto Rico/8/1934(H1N1)) H1N1 infected in MDCK cells assessed as inhibition of virus-induced cytopathic effect", "assay_type": "functional, organism-based"}, "[2]": {"assay": "Toxicity in HEL cells assessed as induction of cell morphology changes", "assay_type": "cell-based", "conditions": "human"}, "Human alphaherpesvirus 1 [3]": {"system": "Human alphaherpesvirus 1", "assay": "Antiviral activity against thymidine kinase deficient and acyclovir-resistant HSV1 KOS infected in HEL cells assessed as inhibition of virus-induced cytopathic effect", "assay_type": "functional, organism-based", "conditions": "Human alphaherpesvirus 1, KOS"}, "[4]": {"system": "Vesicular stomatitis virus", "assay": "Antiviral activity against Vesicular stomatitis virus infected in HEL cells assessed as inhibition of virus-induced cytopathic effect", "assay_type": "functional, organism-based"}, "Vaccinia virus": {"system": "Vaccinia virus", "assay": "Antiviral activity against Vaccinia virus infected in HEL cells assessed as inhibition of virus-induced cytopathic effect", "assay_type": "functional, organism-based", "conditions": "Orthopoxvirus vaccinia"}, "Human alphaherpesvirus 2": {"system": "Human alphaherpesvirus 2", "assay": "Antiviral activity against HSV2 G infected in HEL cells assessed as inhibition of virus-induced cytopathic effect", "assay_type": "functional, organism-based", "conditions": "Human alphaherpesvirus 2, strain G"}, "Human alphaherpesvirus 1 [5]": {"system": "Human alphaherpesvirus 1", "assay": "Antiviral activity against HSV1 KOS infected in HEL cells assessed as inhibition of virus-induced cytopathic effect", "assay_type": "functional, organism-based", "conditions": "Human alphaherpesvirus 1, KOS"}},
  "note": "pEC50: −log10 of the molar value.",
  "data": [
    {"molecule": "NC12CC3CC(CC(C3)C1)C2", "note": "[AMANTADINE]", "values": [
      {"measurement": "MCC", "setting": "[1]", "value": "≥ 500", "unit": "µM"},
      {"measurement": "pEC50", "setting": "Influenza B virus", "value": "< 3.30"},
      {"measurement": "pEC50", "setting": "H3N2 subtype", "value": 6.35},
      {"measurement": "pEC50", "setting": "Influenza A virus", "value": 3.67}
    ]},
    {"molecule": "CC(=O)N[C@H]1[C@H]([C@H](O)[C@H](O)CO)OC(C(=O)O)=C[C@@H]1NC(=N)N", "note": "[ZANAMIVIR]", "values": [
      {"measurement": "MCC", "setting": "[1]", "value": "> 100", "unit": "µM"},
      {"measurement": "pEC50", "setting": "Influenza B virus", "value": 4.64},
      {"measurement": "pEC50", "setting": "H3N2 subtype", "value": 5.32},
      {"measurement": "pEC50", "setting": "Influenza A virus", "value": 5.80}
    ]},
    {"molecule": "CC(=O)N[C@H]1[C@H](O[C@@H]2c3ccc(c(Cl)c3)Oc3cc4cc(c3O)Oc3ccc(cc3Cl)C[C@H]3NC(=O)[C@H](N)c5ccc(O)c(c5)Oc5cc(O)cc(c5)[C@H](NC3=O)C(=O)N[C@H]4C(=O)N[C@H]3C(=O)N[C@@H]2C(=O)N[C@H](C(=O)O)c2cc(O)cc(O)c2-c2cc3ccc2O)O[C@H](CO)[C@@H](O)[C@@H]1O", "values": [
      {"measurement": "MCC", "setting": "[2]", "value": "> 100", "unit": "µM"},
      {"measurement": "pEC50", "setting": "Human alphaherpesvirus 1 [3]", "value": "< 4.00"},
      {"measurement": "pEC50", "setting": "[4]", "value": "< 4.00"},
      {"measurement": "pEC50", "setting": "Vaccinia virus", "value": "< 4.00"},
      {"measurement": "pEC50", "setting": "Human alphaherpesvirus 2", "value": "< 4.00"},
      {"measurement": "pEC50", "setting": "Human alphaherpesvirus 1 [5]", "value": "< 4.00"},
      {"measurement": "MCC", "setting": "[1]", "value": "≥ 100", "unit": "µM"},
      {"measurement": "pEC50", "setting": "Influenza B virus", "value": "< 4.00"},
      {"measurement": "pEC50", "setting": "H3N2 subtype", "value": 4.77},
      {"measurement": "pEC50", "setting": "Influenza A virus", "value": 4.64}
    ]},
    {"molecule": "NC(=O)c1ncn([C@@H]2O[C@H](CO)[C@@H](O)[C@H]2O)n1", "note": "[RIBAVIRIN]", "values": [
      {"measurement": "pEC50", "setting": "Influenza B virus", "value": 5.34},
      {"measurement": "pEC50", "setting": "H3N2 subtype", "value": 5.22},
      {"measurement": "pEC50", "setting": "Influenza A virus", "value": 5.21}
    ]},
    {"molecule": "O=c1[nH]c(=O)n([C@H]2C[C@H](O)[C@@H](CO)O2)cc1/C=C/Br", "note": "[BRIVUDINE]", "values": [
      {"measurement": "MCC", "setting": "[2]", "value": "> 250", "unit": "µM"},
      {"measurement": "pEC50", "setting": "Human alphaherpesvirus 1 [3]", "value": 4.30},
      {"measurement": "pEC50", "setting": "[4]", "value": "< 3.60"},
      {"measurement": "pEC50", "setting": "Vaccinia virus", "value": 5.00},
      {"measurement": "pEC50", "setting": "Human alphaherpesvirus 2", "value": 3.70},
      {"measurement": "pEC50", "setting": "Human alphaherpesvirus 1 [5]", "value": 7.62}
    ]},
    {"molecule": "Nc1ccn(C[C@@H](CO)OCP(=O)(O)O)c(=O)n1", "note": "[CIDOFOVIR]", "values": [
      {"measurement": "MCC", "setting": "[2]", "value": "> 250", "unit": "µM"},
      {"measurement": "pEC50", "setting": "Human alphaherpesvirus 1 [3]", "value": 5.82},
      {"measurement": "pEC50", "setting": "[4]", "value": "< 3.60"},
      {"measurement": "pEC50", "setting": "Vaccinia virus", "value": 4.68},
      {"measurement": "pEC50", "setting": "Human alphaherpesvirus 2", "value": 6.05},
      {"measurement": "pEC50", "setting": "Human alphaherpesvirus 1 [5]", "value": 5.82}
    ]},
    {"molecule": "Nc1nc2c(ncn2COCCO)c(=O)[nH]1", "note": "[ACYCLOVIR]", "values": [
      {"measurement": "MCC", "setting": "[2]", "value": "> 250", "unit": "µM"},
      {"measurement": "pEC50", "setting": "Human alphaherpesvirus 1 [3]", "value": 4.36},
      {"measurement": "pEC50", "setting": "[4]", "value": "< 3.60"},
      {"measurement": "pEC50", "setting": "Vaccinia virus", "value": "≤ 3.60"},
      {"measurement": "pEC50", "setting": "Human alphaherpesvirus 2", "value": 6.85},
      {"measurement": "pEC50", "setting": "Human alphaherpesvirus 1 [5]", "value": 6.85}
    ]}
  ]
}
